Strand notation (5' to 3'): a small letter for the sugar, then the base; units joined by * are phosphorothioate-linked, units joined directly phosphodiester-linked; [ ] holds rarer units or linkages, { } end groups; capitals alone tell only the bases. e = 2'-O-(2-methoxyethyl) (MOE); [5mC] = 5-methylcytosine; d = 2'-deoxy (DNA)

This note sets out measurements from US11840686B2, “Modulation of prekallikrein (PKK) expression” (Ionis Pharmaceuticals, Inc., priority 2013, dated 2023).

Series [1] has as its system human PKK mRNA. As to the kind of experiment: Antisense inhibition of human PKK mRNA in HepaRG cells, 5,000 nM (Example 2). It is filed as cell-based. The gist of the method: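 HepaRG cells (20,000/well) electroporated with 5,000 nM MOE gapmer (phosphorothioate backbone, 5-methylcytosines) and harvested after ~24 h. PKK mRNA measured by qRT-PCR with primer probe set RTS3454, normalized to RIBOGREEN total RNA; percent inhibition versus untreated cells.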

The subject of series [2] is human PKK mRNA. As to the kind of experiment: Dose-dependent antisense inhibition of human PKK in HepaRG cells, 0.19-5.00 uM (Example 5). It is filed as cell-based. The gist of the method: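 HepaRG cells (20,000/well) were electroporated with antisense oligonucleotide at 0.19, 0.56, 1.67 and 5.00 μM and treated for about 16 hours. PKK mRNA was quantified by qRT-PCR with primer probe set RTS3454, normalised to RIBOGREEN total RNA, and IC50 was derived per oligonucleotide.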

Where [3] appears, read: HepaRG cells, electroporation, approximately 16 hours, Table 36.
[4] abbreviates: HepaRG cells, electroporation, approximately 16 hours, Table 39.
[5] abbreviates: HepaRG cells, electroporation, approximately 16 hours, Table 38.
[6] abbreviates: HepaRG cells, electroporation, approximately 16 hours, Table 40.
Where [7] appears, read: Table 34, HepaRG, electroporation, ~16 h.

For the substance “548770 (antisense eT*eA*eA*e[5mC]*dA*dG*dT*dA*dT*d[5mC]*dA*d[5mC]*dT*eG*eT*e[5mC]*e[5mC]) [compound 548770]”, the “% inhibition” value in the series on human PKK mRNA [1] (human PKK mRNA, HepaRG cells, 5,000 nM antisense oligonucleotide, Table 18) came to 92%. In the series on human PKK mRNA [2] (setting [3]), the “percent inhibition of PKK at 0.19 μM” value is 26%, the “percent inhibition of PKK at 0.56 μM” value is given as 54%, the “percent inhibition of PKK at 1.67 μM” value came to 77% and the “percent inhibition of PKK at 5.00 μM” value came to 91%. Further, the IC50 in the series with human PKK mRNA [2] (4 point dose response, HepaRG cells, Table 36) was 500 nM. Further, the “percent inhibition of PKK mRNA, 0.19 μM” value with human PKK mRNA [2] (HepaRG cells, 0.19 μM antisense oligonucleotide) worked out at 9%. Besides, the “percent inhibition of PKK mRNA, 0.56 μM” value with human PKK mRNA [2] (HepaRG cells, 0.56 μM antisense oligonucleotide) is recorded as 0%. Also, in the series on human PKK mRNA [2] (HepaRG cells, 1.67 μM antisense oligonucleotide), the “percent inhibition of PKK mRNA, 1.67 μM” value amounted to 61%. The “percent inhibition of PKK mRNA, 5.00 μM” value in the series with human PKK mRNA [2] (HepaRG cells, 5.00 μM antisense oligonucleotide) is on record as 92%. This substance also displayed a half-inhibitory concentration (IC50) in the series with human PKK mRNA [2] (HepaRG cells, 0.19-5.00 μM) of 1700 nM.

On to “547616 (antisense eT*eG*eT*e[5mC]*e[5mC]*dT*dA*dT*dA*dT*d[5mC]*dA*d[5mC]*dT*dG*eT*eA*e[5mC]*e[5mC]*eT) [compound 547616]”, for which the “% inhibition” value in the series with human PKK mRNA [1] (human PKK mRNA in HepaRG cells, 5-10-5 gapmers, Table 14) is listed as 86%. For the same substance, in the series with human PKK mRNA [2] (setting [4]), the “percent inhibition of PKK at 0.19 μM” value is given as 26%, the “percent inhibition of PKK at 0.56 μM” value is listed as 50%, the “percent inhibition of PKK at 1.67 μM” value is reported as 72% and the “percent inhibition of PKK at 5.00 μM” value is reported as 89%. Half-maximal inhibition in the series with human PKK mRNA [2] (4 point dose response, HepaRG cells, Table 39) (IC50) required 600 nM.

With “546429 (eG*e[5mC]*e[5mC]*e[5mC]*eA*d[5mC]*d[5mC]*dA*dA*d[5mC]*dA*dA*dT*d[5mC]*dT*e[5mC]*eT*eG*eG*eT; antisense) [compound 546429]”, the “% inhibition” value with human PKK mRNA [1] (HepaRG cells, electroporation, 5,000 nM antisense oligonucleotide, approx. 24 hours, primer probe set RTS3454, relative to untreated control cells, Table 12) was determined as 84%. Also, in the series on human PKK mRNA [2] (setting [5]), the “percent inhibition of PKK at 0.19 μM” value was 6%, the “percent inhibition of PKK at 0.56 μM” value is 10%, the “percent inhibition of PKK at 1.67 μM” value was found to be 44% and the “percent inhibition of PKK at 5.00 μM” value is 69%. For the same substance, the half-maximal inhibitory concentration (IC50) in the series with human PKK mRNA [2] (4 point dose response, HepaRG cells, Table 38) amounted to 2300 nM.

As to “547520 (antisense eT*e[5mC]*eA*eG*e[5mC]*d[5mC]*dA*dG*dA*d[5mC]*dA*dT*dT*dG*dT*e[5mC]*e[5mC]*eT*e[5mC]*eA) [compound 547520]”, in the series with human PKK mRNA [1] (HepaRG cells, electroporation, 5,000 nM antisense oligonucleotide, approx. 24 hours, primer probe set RTS3454, relative to untreated control cells, Table 11), the “% inhibition” value is given as 76%. Further, in the series with human PKK mRNA [2] (setting [6]), the “percent inhibition of PKK at 0.19 μM” value is recorded as 0%, the “percent inhibition of PKK at 0.56 μM” value came to 25%, the “percent inhibition of PKK at 1.67 μM” value is listed as 66% and the “percent inhibition of PKK at 5.00 μM” value came out at 64%. Also, the IC50 in the series with human PKK mRNA [2] (4 point dose response, HepaRG cells, Table 40) was 1100 nM.

For “546825 (eG*eT*eA*eT*e[5mC]*dA*d[5mC]*dT*dG*dT*dA*d[5mC]*dT*dA*dG*eT*eT*eT*e[5mC]*e[5mC]; antisense) [compound 546825]”, the “% inhibition” value in the series with human PKK mRNA [1] (Table 13, human PKK mRNA in HepaRG cells, 5-10-5 gapmers) stood at 96%. In addition, in the series with human PKK mRNA [2] (HepaRG cells, electroporation, approximately 16 hours, Table 41), the “percent inhibition of PKK at 5.00 μM” value is recorded as 99%. The “percent inhibition of PKK at 0.19 0μM” value with human PKK mRNA [2] (0.19 0μM, HepaRG cells, electroporation, approximately 16 hours, Table 41) came to 38%. Further, in the series on human PKK mRNA [2] (0.56 0μM, HepaRG cells, electroporation, approximately 16 hours, Table 41), the “percent inhibition of PKK at 0.56 0μM” value was 82%. For the same substance, in the series with human PKK mRNA [2] (4 point dose response, HepaRG cells, Table 41), half-maximal inhibition (IC50) required 200 nM. Moreover, in the series with human PKK mRNA [2] (setting [7]), the “percent inhibition of PKK at 0.19 μM” value was 46%, the “percent inhibition of PKK at 0.56 μM” value is 73%, the “percent inhibition of PKK at 1.67 μM” value is recorded as 86% and the “percent inhibition of PKK at 5.00 μM” value was 88%. This substance also returned an IC50 in the series on human PKK mRNA [2] (Table 34, PKK mRNA, HepaRG, electroporation, ~16 h) of 200 nM.
